Where two headings read alike, the source gives them in different places. Where a SMILES comes first, the peptide text is derived from it. The star is where a group is joined. C16 diacid = O=C(O)CCCCCCCCCCCCCCC(=O)*
Experiments:
[1] = Elimination half-life (T1/2) estimated in Göttingen minipigs; type: in vivo
Experimental: 2-3 Göttingen minipigs were subcutaneously administered one of the GIP analogues of the present invention (1-10 nmol/kg, total volume 2-6 mL) and blood samples were collected before and up to 432 hours post subcutaneous administration.) from a central venous catheter. The catheter was flushed with saline and heparin between samples. Blood was collected into cold EDTA tubes, centrifuged and plasma was kept at −20° C. pending analyses.
Concentrations of the acylated GIP(3-30)NH2 or GIP(5-30)NH2 analogues in blood samples from Göttingen minipigs were analyzed by RIA. Analogues' immunoreactivity was determined using antiserum Ab95234, Ab95235, Ab95236, a polyclonal in-house antibody raised in rabbits specific for either the mid region of GIP(1-30)NH2 or amidated C-terminus of GIP(3-30)NH2.
In addition to the hormone analysis, blood concentrations of AT374, 380, 382-385, 392-393 were determined by LC/MS performed by Red Glead Discovery AB, Lund, Sweden. The plasma samples were precipitated by addition of 3 parts ethanol followed by thorough mixing. After centrifugation and dilution of the supernatant, the samples were analyzed by LC-MS/MS and compared with a 9-point calibration curve. The calibration curves were prepared in naïve plasma matrix from Göttingen minipigs.

[2] = target: T1, human GIP receptor (Homo sapiens, UniProt P48546); test: cAMP antagonism (CisBio cAMP Dynamic 2 HTRF assay); type: cell-based; set-up: pCMV-Script vector
T1 sequence (P48546 22-466): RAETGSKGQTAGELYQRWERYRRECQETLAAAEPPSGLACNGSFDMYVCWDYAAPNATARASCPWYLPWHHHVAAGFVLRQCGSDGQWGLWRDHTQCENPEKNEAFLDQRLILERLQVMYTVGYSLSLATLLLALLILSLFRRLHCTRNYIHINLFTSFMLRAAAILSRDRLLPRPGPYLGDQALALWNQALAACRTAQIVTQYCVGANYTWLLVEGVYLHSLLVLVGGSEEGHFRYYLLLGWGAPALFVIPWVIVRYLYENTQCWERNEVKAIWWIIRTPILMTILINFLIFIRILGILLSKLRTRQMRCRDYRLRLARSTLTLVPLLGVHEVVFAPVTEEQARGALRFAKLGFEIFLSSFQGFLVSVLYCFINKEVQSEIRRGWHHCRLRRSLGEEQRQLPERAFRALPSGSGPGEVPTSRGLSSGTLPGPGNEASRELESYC
In short: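 Four-parameter fits of cAMP dose-response gave pIC50. cAMP fall was quantified by HTRF competition, ratio 665/620 nm after 60 min at room temperature, against a cAMP standard curve.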

[3] = target: T1, human GIP receptor; test: cAMP accumulation, agonism (DiscoveRx HitHunter cAMP XS assay); type: cell-based; set-up: host or cells: COS-7 (transient, calcium phosphate; pCMV-Script vector); conditions: Table 1B; DiscoveRx; COS-7 cells
In short: (§1)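 cAMP accumulation measured by HitHunter cAMP XS in COS-7 cells transiently expressing human GIP receptor, after 30 min in HBS with 1 mM IBMX at 37 °C. Antagonists preincubated 10 min before GIP giving 50-80% of maximum, then 20 min more; agonist mode used 30 min ligand exposure.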

[4] = target: T1, human GIP receptor; test: cAMP agonism (CisBio cAMP Dynamic 2 HTRF assay); type: cell-based
Experimental: To test for agonistic properties at the GIP receptor, compounds were diluted and added to cells as described above and incubated for 30 min at 37° C. The resulting increase in intracellular cAMP was determined using the CisBio cAMP Dynamic 2 HTRF Assay Kit as described above.

[5] = target: T1, human GIP receptor; test: cAMP accumulation, antagonism (DiscoveRx HitHunter cAMP XS assay); type: cell-based; set-up: host or cells: COS-7 (transient, calcium phosphate; pCMV-Script vector)
In short: as §1

[6] = target: T2, GLP1 receptor (GLP1R) (Homo sapiens, UniProt P43220); test: cAMP assay - selectivity, antagonism at GLP1 receptor; type: cell-based; conditions: Table 3A
T2 construct: expressed in transfected cells; host or cells: COS-7 (transient)
Experimental: (§2) Transient transfected COS-7 cells expressing the either of the GLP1 receptor (GLP1R), GLP2 receptor (GLP2R), glucagon receptor (GcgR) or secretin receptor (SCTR) were seeded in white 96-well plates with a density of 3.5*10^4/well. The day after, the cells were washed twice with Hepes buffered saline (HBS) buffer and incubated with HBS and 1 mM 3-isobutyl-1-methylxanthine (IBMX) for 30 min at 37° C. To test for agonistic properties, ligands were added and incubated for 30 min at 37° C. In order to test for antagonistic properties, the cells were preincubated with the antagonists for 10 min prior to the addition the natural agonist for the expressed receptor (GLP1 for GLP1R expressing cells, GLP2 for GLP2R expressing cells, glucagon for the GcgR and secretin for the SCTR) and subsequent incubated for 20 additional min. […] The HitHunter™ cAMP XS assay (DiscoveRx) was carried out according to the manufacturer's instructions.

[7] = target: T3, GLP2 receptor (GLP2R) (Homo sapiens, UniProt O95838); test: cAMP assay - selectivity, antagonism at GLP2 receptor; type: cell-based; conditions: Table 3B; COS-7 cells; agonist GLP2
T3 construct: expressed in transfected cells; host or cells: COS-7 (transient)
T3 sequence (O95838 1-553): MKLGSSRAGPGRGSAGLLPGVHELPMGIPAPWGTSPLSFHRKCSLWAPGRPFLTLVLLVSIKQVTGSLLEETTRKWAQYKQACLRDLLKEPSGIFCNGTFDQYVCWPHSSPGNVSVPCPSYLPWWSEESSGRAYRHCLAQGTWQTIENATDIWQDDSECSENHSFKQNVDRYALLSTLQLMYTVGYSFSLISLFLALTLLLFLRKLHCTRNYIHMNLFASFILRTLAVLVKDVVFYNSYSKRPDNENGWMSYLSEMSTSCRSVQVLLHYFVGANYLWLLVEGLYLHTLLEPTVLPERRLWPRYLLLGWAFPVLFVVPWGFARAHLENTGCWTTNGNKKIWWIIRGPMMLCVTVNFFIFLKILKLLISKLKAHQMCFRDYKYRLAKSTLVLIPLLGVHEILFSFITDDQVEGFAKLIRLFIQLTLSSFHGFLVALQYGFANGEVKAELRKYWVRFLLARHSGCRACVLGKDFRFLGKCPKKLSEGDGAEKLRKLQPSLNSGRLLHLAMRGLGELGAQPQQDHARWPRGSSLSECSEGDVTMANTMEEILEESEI
Experimental: as §2

[8] = target: T4, secretin receptor (SCTR) (Homo sapiens, UniProt P47872); test: cAMP assay - selectivity, antagonism at secretin receptor; type: cell-based; conditions: Table 3B; COS-7 cells; agonist secretin
T4 construct: expressed in transfected cells; host or cells: COS-7 (transient)
Experimental: as §2

[9] = target: T5, glucagon receptor (GcgR) (Homo sapiens, UniProt P47871); test: cAMP assay - selectivity, antagonism at glucagon receptor; type: cell-based; conditions: Table 3A; COS-7 cells; agonist glucagon at 50-80% of maximal cAMP
T5 construct: expressed in transfected cells; host or cells: COS-7 (transient)
Experimental: as §2

[10] = GIPR, Antagonism, nM, Table 3C, CisBio assay
[11] = Table 1C, CisBio, HEK-293 cells
[12] = cAMP antagonism, nM (IC50), Table 1C, CisBio, HEK-293 cells, agonist GIP1-42 at EC50
[13] = Table 3A/3B, DiscoveRx, COS-7 cells

T2 sequence (P43220 24-463, species assumed): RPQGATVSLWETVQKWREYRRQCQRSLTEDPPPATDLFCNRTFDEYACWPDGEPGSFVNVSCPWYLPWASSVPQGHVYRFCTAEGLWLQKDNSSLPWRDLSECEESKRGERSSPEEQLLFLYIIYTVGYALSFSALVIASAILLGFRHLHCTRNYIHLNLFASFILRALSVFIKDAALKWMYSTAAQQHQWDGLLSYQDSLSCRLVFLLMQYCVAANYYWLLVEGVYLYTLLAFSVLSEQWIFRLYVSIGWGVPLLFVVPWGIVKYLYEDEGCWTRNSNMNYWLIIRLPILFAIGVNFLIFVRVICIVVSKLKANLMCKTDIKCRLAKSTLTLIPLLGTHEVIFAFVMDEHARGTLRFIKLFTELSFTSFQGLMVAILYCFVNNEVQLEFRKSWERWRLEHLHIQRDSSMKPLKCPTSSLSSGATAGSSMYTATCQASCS
T5 sequence (P47871 26-477, species assumed): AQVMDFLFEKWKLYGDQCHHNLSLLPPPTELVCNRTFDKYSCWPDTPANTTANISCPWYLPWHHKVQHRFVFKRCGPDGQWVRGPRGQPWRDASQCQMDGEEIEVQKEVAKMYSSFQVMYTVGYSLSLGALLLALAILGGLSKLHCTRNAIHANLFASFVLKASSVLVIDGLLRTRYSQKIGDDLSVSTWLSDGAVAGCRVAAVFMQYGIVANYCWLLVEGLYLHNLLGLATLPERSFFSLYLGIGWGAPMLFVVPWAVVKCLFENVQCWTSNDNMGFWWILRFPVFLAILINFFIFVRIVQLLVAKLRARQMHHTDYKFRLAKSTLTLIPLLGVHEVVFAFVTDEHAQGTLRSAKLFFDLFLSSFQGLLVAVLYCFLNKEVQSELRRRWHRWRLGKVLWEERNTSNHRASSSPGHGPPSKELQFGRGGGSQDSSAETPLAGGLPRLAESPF
T4 sequence (P47872 23-440, species assumed): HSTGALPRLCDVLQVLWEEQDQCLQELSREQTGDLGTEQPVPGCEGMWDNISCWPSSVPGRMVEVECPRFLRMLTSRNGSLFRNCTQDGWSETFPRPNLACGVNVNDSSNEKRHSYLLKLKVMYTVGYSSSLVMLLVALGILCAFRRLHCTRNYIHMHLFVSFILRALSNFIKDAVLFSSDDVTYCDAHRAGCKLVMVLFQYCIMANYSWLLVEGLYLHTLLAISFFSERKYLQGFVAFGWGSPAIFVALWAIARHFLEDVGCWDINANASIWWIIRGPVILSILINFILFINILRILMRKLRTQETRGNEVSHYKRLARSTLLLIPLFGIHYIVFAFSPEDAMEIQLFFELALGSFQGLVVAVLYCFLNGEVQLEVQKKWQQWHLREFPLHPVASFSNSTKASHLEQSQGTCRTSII

CC[C@H](C)[C@H](NC(=O)[C@H](CO)NC(=O)[C@H](Cc1ccc(O)cc1)NC(=O)[C@H](CC(=O)O)NC(=O)[C@H](CO)NC(=O)[C@@H](NC(=O)[C@H](Cc1ccccc1)NC(=O)[C@@H](NC(=O)CNC(=O)[C@@H](N)CO)[C@@H](C)O)[C@@H](C)CC)C(=O)N[C@@H](C)C(=O)N[C@@H](CCSC)C(=O)N[C@@H](CC(=O)O)C(=O)N[C@@H](CCCNC(=N)N)C(=O)N[C@H](C(=O)N[C@@H](CCCCNC(=O)CCCCCCCCCCCCCCC(=O)O)C(=O)N[C@@H](CCC(N)=O)C(=O)N[C@@H](CCC(N)=O)C(=O)N[C@@H](CC(=O)O)C(=O)N[C@@H](Cc1ccccc1)C(=O)N[C@H](C(=O)N[C@@H](CC(N)=O)C(=O)N[C@@H](Cc1c[nH]c2ccccc12)C(=O)N[C@@H](CC(C)C)C(=O)N[C@@H](CC(C)C)C(=O)N[C@@H](C)C(=O)N[C@@H](CCC(N)=O)C(=O)N[C@@H](CCCNC(=N)N)C(N)=O)C(C)C)[C@@H](C)CC [AT392] (H-SGTFISDYSIAMDRIK(C16 diacid)QQDFVNWLLAQR-NH2; N-terminus assumed)
half-life ([1]; Göttingen, minipig, plasma, subcutaneous, Example 1, read-out: T1/2 (converted)): 6 h | half-life ([1]; sc, Table 1B, species not given, unit h, LC/MS in Göttingen minipig plasma for these IDs, subcutaneous 1-10 nmol/kg, read-out: T½ (converted)): 6 h | IC50 [2, 10]: 68.1 nM | cAMP antagonism, % inhib [2, 11]: 96% | GIPR, Antagonism, % inhib ([2]; Table 3C, CisBio assay): 96% | IC50 [2, 12]: 68.1 nM | cAMP agonism, Emax [3]: No Agonism | cAMP agonism, % Efficacy ([4]; Table 1C, HEK-293 cells): 0% | cAMP antagonism, % inhib ([5]; Table 1B, DiscoveRx, COS-7 cells, % inhibition of Emax): 93% | GIPR, Antagonism, % inhib [5, 13]: 93.0% | IC50 ([5]; cAMP antagonism, nM (IC50), Table 1B, DiscoveRx, transiently transfected COS-7 cells): 1 nM | GLP-1R, Antagonism, nM ([6]; COS-7 cells, agonist GLP1 at 50-80% of maximal cAMP): No antagonism

CC[C@H](C)[C@H](NC(=O)[C@H](CO)NC(=O)[C@H](Cc1ccc(O)cc1)NC(=O)[C@H](CC(=O)O)NC(=O)[C@H](CO)NC(=O)[C@@H](NC(=O)[C@@H](N)Cc1ccccc1)[C@@H](C)CC)C(=O)N[C@@H](C)C(=O)N[C@@H](CCSC)C(=O)N[C@@H](CC(=O)O)C(=O)N[C@@H](CCCCN)C(=O)N[C@H](C(=O)N[C@@H](CCCCNC(=O)CCCCCCCCCCCCCCC(=O)O)C(=O)N[C@@H](CCC(N)=O)C(=O)N[C@@H](CCC(N)=O)C(=O)N[C@@H](CC(=O)O)C(=O)N[C@@H](Cc1ccccc1)C(=O)N[C@H](C(=O)N[C@@H](CC(N)=O)C(=O)N[C@@H](Cc1c[nH]c2ccccc12)C(=O)N[C@@H](CC(C)C)C(=O)N[C@@H](CC(C)C)C(=O)N[C@@H](C)C(=O)N[C@@H](CCC(N)=O)C(=O)N[C@@H](CCCCN)C(N)=O)C(C)C)[C@@H](C)CC [AT353] (H-FISDYSIAMDKIK(C16 diacid)QQDFVNWLLAQK-NH2; N-terminus assumed)
IC50 [2, 10]: 25.1 nM | cAMP antagonism, % inhib [2, 11]: 90% | GIPR, Antagonism, % inhib ([2]; Table 3C, CisBio assay): 90% | IC50 [2, 12]: 25.1 nM | Emax ([4]; HEK293, read-out: cAMP agonism, % Efficacy, Table 1C, HEK-293 cells): 0% | GLP-2R, Antagonism [7]: No antagonism | IC50 ([5]; GIPR, Antagonism, nM, Table 3A/3B, DiscoveRx, COS-7 cells): 9 nM | IC50 ([5]; IC50-value (GIPR antagonism), Examples 1 and 2, values of Tables 1B and 2): 9 nM | cAMP antagonism, % inhib ([5]; Table 2, truncated GIP antagonists): 100.0% | GIPR, Antagonism, % inhib [5, 13]: 100.0% | IC50 ([5]; cAMP antagonism, nM (IC50), Table 2, truncated GIP antagonists): 9 nM | Secretin R, Antagonism [8]: No antagonism | GLP-1R, Antagonism, %inhib ([6]; COS-7 cells): 43% | GLP-1R, Antagonism, index ([6]; selectivity index versus GIPR): 44 | Glucagon R, Antagonism, nM [9]: No antagonism

— patent US12187773B2, “Modified GIP peptide analogues” (Antag Therapeutics ApS, priority 2018, dated 2025)
